Experimental data: ChEMBL document CHEMBL1201862, “PubChem BioAssay data set” (2004)
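Dose response: 5 concentrations. Exposure: 48 h. Format: 96-well plates. Endpoint: linear interpolation; highest concentration if not reached. Here, GI50 denotes the concentration required for 50% inhibition of growth.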 Active and inactive are the calls of the source. No stated cut-off is given here; in the data, active = GI50 up to about 1.1 µM and inactive = higher.

Legend:
Test in all cases: growth of human tumour cells (NCI), 48 h
CCRF-CEM = test system: CCRF-CEM
COLO 205 = test system: COLO 205
M14 = test system: M14
BT-549 = test system: BT-549
MDA-MB-231 = test system: MDA-MB-231
NCI-H460 = test system: NCI-H460
A549 = test system: A549
SW-620 = test system: SW-620
MDA-N = test system: MDA-N
U-251 = test system: U-251
EKVX = test system: EKVX
HL-60 = test system: HL-60
OVCAR-4 = test system: OVCAR-4
NCI/ADR-RES = test system: NCI/ADR-RES
SF-539 = test system: SF-539
ACHN = test system: ACHN
A498 = test system: A498
SK-OV-3 = test system: SK-OV-3
RPMI-8226 = test system: RPMI-8226
SR = test system: SR

Measured: GI50

COc1cc(/C=C2\NC(=O)N(/C=C3\C(=O)Oc4ccccc4C3=O)C2=O)ccc1O
inactive: CCRF-CEM 32.7 µM | COLO 205 78.2 µM | M14 99.3 µM | BT-549 43 µM | MDA-MB-231 35.2 µM | NCI-H460 > 100 µM | A549 > 100 µM | SW-620 > 100 µM | MDA-N > 100 µM | U-251 76.6 µM | EKVX > 100 µM | HL-60 20.7 µM | OVCAR-4 91.8 µM | NCI/ADR-RES > 100 µM | SF-539 63.1 µM | ACHN > 100 µM | A498 42.1 µM | SK-OV-3 51.1 µM | RPMI-8226 > 100 µM

CCOC(=O)[C@@H]1C2C(=C[C@H]3[C@H]1C(=O)N1CCCC[C@H]31)CCCN2C(=O)OCc1ccccc1 (some centres not stated)
inactive: CCRF-CEM 22.3 µM | COLO 205 23.9 µM | M14 38.8 µM | BT-549 24.7 µM | MDA-MB-231 > 100 µM | NCI-H460 23.8 µM | A549 36.1 µM | SW-620 52.2 µM | MDA-N 35.7 µM | U-251 43.6 µM | EKVX 38.3 µM | HL-60 20.8 µM | OVCAR-4 37.8 µM | NCI/ADR-RES 26.2 µM | SF-539 43.6 µM | ACHN 29.9 µM | A498 23.6 µM | SK-OV-3 94.8 µM | RPMI-8226 20.2 µM

C=CC(=C)CCC(Br)C(C)(C)Cl (configuration not stated)
inactive: CCRF-CEM 87.5 µM | COLO 205 > 100 µM | M14 > 100 µM | BT-549 > 100 µM | MDA-MB-231 > 100 µM | NCI-H460 > 100 µM | A549 > 100 µM | SW-620 > 100 µM | MDA-N > 100 µM | U-251 > 100 µM | EKVX > 100 µM | HL-60 37.1 µM | OVCAR-4 > 100 µM | NCI/ADR-RES > 100 µM | SF-539 > 100 µM | ACHN > 100 µM | SK-OV-3 > 100 µM | RPMI-8226 > 100 µM

NS(=O)(=O)c1ccc(/N=N/c2nc3nc(O)nc(O)c3[nH]2)cc1
inactive: COLO 205 > 100 µM | M14 > 100 µM | BT-549 > 100 µM | MDA-MB-231 > 100 µM | NCI-H460 > 100 µM | A549 > 100 µM | SR 39.8 µM | SW-620 > 100 µM | MDA-N > 100 µM | U-251 > 100 µM | EKVX > 100 µM | OVCAR-4 > 100 µM | NCI/ADR-RES > 100 µM | SF-539 > 100 µM | ACHN > 100 µM | A498 > 100 µM | SK-OV-3 > 100 µM | RPMI-8226 > 100 µM

NC(=O)C(=Cn1c(=S)[nH]c2ccc([N+](=O)[O-])cc21)C(N)=O
inactive: COLO 205 > 100 µM | M14 > 100 µM | BT-549 > 100 µM | MDA-MB-231 > 100 µM | NCI-H460 > 100 µM | A549 > 100 µM | SW-620 > 100 µM | MDA-N > 100 µM | U-251 > 100 µM | EKVX 19.7 µM | HL-60 > 100 µM | OVCAR-4 > 100 µM | NCI/ADR-RES > 100 µM | SF-539 > 100 µM | ACHN > 100 µM | A498 > 100 µM | SK-OV-3 > 100 µM

COc1cccc(/C=C\c2ccnc3ccccc23)c1
inactive: CCRF-CEM > 10 µM | COLO 205 > 10 µM | M14 > 10 µM | BT-549 > 10 µM | MDA-MB-231 > 10 µM | NCI-H460 > 10 µM | A549 > 10 µM | SW-620 > 10 µM | MDA-N > 10 µM | U-251 > 10 µM | EKVX > 10 µM | HL-60 > 10 µM | OVCAR-4 > 10 µM | NCI/ADR-RES > 10 µM | SF-539 > 10 µM | ACHN > 10 µM | A498 > 10 µM | SK-OV-3 > 10 µM | RPMI-8226 > 10 µM

CC(C)C/N=C(\N)N=C(N)N
inactive: COLO 205 > 100 µM | M14 > 100 µM | BT-549 > 100 µM | MDA-MB-231 > 100 µM | NCI-H460 > 100 µM | A549 > 100 µM | SR > 100 µM | SW-620 > 100 µM | MDA-N > 100 µM | U-251 > 100 µM | EKVX > 100 µM | HL-60 > 100 µM | OVCAR-4 > 100 µM | NCI/ADR-RES > 100 µM | SF-539 > 100 µM | ACHN > 100 µM | SK-OV-3 > 100 µM | RPMI-8226 > 100 µM

O=c1c2ccccc2nc(-c2ccc(Cl)cc2)n1O
inactive: CCRF-CEM 14.1 µM | COLO 205 34.6 µM | M14 26.4 µM | BT-549 27.3 µM | MDA-MB-231 > 100 µM | NCI-H460 11.1 µM | A549 29.4 µM | SW-620 33.7 µM | MDA-N 35.6 µM | U-251 20.8 µM | EKVX 21.7 µM | HL-60 18.3 µM | OVCAR-4 37 µM | NCI/ADR-RES 19.6 µM | SF-539 23.8 µM | ACHN 22.5 µM | A498 53.7 µM | SK-OV-3 28.2 µM | RPMI-8226 26.9 µM

CC(=O)Oc1c(N2CCCCC2)c(C(=O)c2ccccc2)c(O)c2ccn(N(C)C)c12
inactive: CCRF-CEM 15.7 µM | COLO 205 16.7 µM | M14 21.7 µM | BT-549 20.6 µM | MDA-MB-231 14 µM | NCI-H460 21.2 µM | A549 12.4 µM | SW-620 17.3 µM | MDA-N 17.9 µM | U-251 16.7 µM | EKVX 16.1 µM | HL-60 6.38 µM | OVCAR-4 24.5 µM | NCI/ADR-RES 15.7 µM | SF-539 18.5 µM | ACHN 18.5 µM | A498 15.3 µM | SK-OV-3 20.8 µM | RPMI-8226 7.01 µM

CCN1CC(C)Cn2c(=O)[nH]c3cc(Br)cc1c32 (configuration not stated)
inactive: CCRF-CEM 7.67 µM | COLO 205 11 µM | M14 34.1 µM | BT-549 4.1 µM | MDA-MB-231 22.4 µM | NCI-H460 30.6 µM | A549 25.6 µM | SW-620 5.01 µM | MDA-N 4.81 µM | U-251 24 µM | EKVX 3.3 µM | HL-60 7.19 µM | OVCAR-4 12.1 µM | NCI/ADR-RES 8.05 µM | SF-539 29.8 µM | ACHN 13.1 µM | A498 16.9 µM | SK-OV-3 27.7 µM | RPMI-8226 1.79 µM

CC1CC(OP(=O)(OCc2ccccc2)OCc2ccccc2)[C@@H](OCc2ccccc2)C(OCc2ccccc2)C1OCc1ccccc1 (some centres not stated)
inactive: CCRF-CEM > 100 µM | COLO 205 > 100 µM | M14 > 100 µM | BT-549 79.3 µM | MDA-MB-231 > 100 µM | NCI-H460 34.3 µM | A549 24.7 µM | SR > 100 µM | SW-620 > 100 µM | MDA-N > 100 µM | U-251 20.1 µM | EKVX 34.1 µM | HL-60 28.5 µM | OVCAR-4 > 100 µM | NCI/ADR-RES > 100 µM | SF-539 > 100 µM | ACHN 43.9 µM | SK-OV-3 > 100 µM | RPMI-8226 > 100 µM

Oc1[nH]c(Nc2ccc(F)c(Cl)c2)nc2ncnc1-2
inactive: CCRF-CEM > 100 µM | COLO 205 > 100 µM | M14 > 100 µM | BT-549 > 100 µM | MDA-MB-231 > 100 µM | NCI-H460 > 100 µM | A549 > 100 µM | SW-620 > 100 µM | MDA-N > 100 µM | U-251 99.1 µM | EKVX > 100 µM | HL-60 > 100 µM | OVCAR-4 > 100 µM | NCI/ADR-RES > 100 µM | SF-539 > 100 µM | ACHN > 100 µM | A498 > 100 µM | SK-OV-3 > 100 µM | RPMI-8226 > 100 µM

Cc1ccc(C(=O)Oc2ccc(/C=C3\CCC/C(=C\c4ccc(OC(=O)c5ccc(C)cc5)cc4)C3=O)cc2)cc1
inactive: CCRF-CEM > 100 µM | COLO 205 > 100 µM | M14 > 100 µM | BT-549 > 100 µM | MDA-MB-231 > 100 µM | NCI-H460 > 100 µM | A549 > 100 µM | SR > 100 µM | SW-620 > 100 µM | MDA-N > 100 µM | U-251 > 100 µM | EKVX > 100 µM | HL-60 > 100 µM | OVCAR-4 > 100 µM | NCI/ADR-RES > 100 µM | SF-539 > 100 µM | ACHN > 100 µM | RPMI-8226 > 100 µM

C=C1[C@@H](OC(C)=O)/C=C/C2C3C(=O)[C@@](C)(OC(C)=O)[C@H]([C@H](OC(C)=O)[C@]4(O)[C@@H](C)C(=O)O[C@H]4[C@H]1Cl)[C@@]23C (some centres not stated)
inactive: CCRF-CEM > 100 µM | COLO 205 > 100 µM | M14 > 100 µM | BT-549 > 100 µM | MDA-MB-231 > 100 µM | NCI-H460 > 100 µM | A549 > 100 µM | SW-620 > 100 µM | MDA-N > 100 µM | U-251 > 100 µM | EKVX > 100 µM | OVCAR-4 > 100 µM | NCI/ADR-RES > 100 µM | ACHN > 100 µM | A498 > 100 µM | SK-OV-3 > 100 µM | RPMI-8226 > 100 µM

CC(=N)OC1CC2CCC1(C)C2(C)C (configuration not stated)
inactive: CCRF-CEM > 100 µM | COLO 205 > 100 µM | M14 > 100 µM | BT-549 > 100 µM | MDA-MB-231 > 100 µM | NCI-H460 > 100 µM | A549 > 100 µM | SR > 100 µM | SW-620 > 100 µM | MDA-N > 100 µM | U-251 > 100 µM | EKVX > 100 µM | HL-60 > 100 µM | OVCAR-4 > 100 µM | SF-539 > 100 µM | ACHN > 100 µM | A498 > 100 µM | SK-OV-3 > 100 µM | RPMI-8226 > 100 µM
